According to US20150218172A1, “Pyrrolo[2,3-D]Pyrimidine Tropomyosin-Related Kinase Inhibitors” (PFIZER LIMITED, priority 2012, published 2015):

Biological target: T1, TrkA (Homo sapiens, UniProt P04629)
T1 construct: aa 441-796; His; purchased Invitrogen PV3144
Assay: Isolated TRK enzyme assay (HTRF KinEASE-TK kit), PV3144 TrkA enzyme assay
Type: biochemical
Conditions: PV3144 TrkA enzyme assay, recombinant His-tagged cytoplasmic domain aa 441-796, 4 nM enzyme, 40 uM ATP; arithmetic mean where more than one reading; read-out: Trka enzyme (IC50)
Procedure, shortened: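 HTRF KinEASE tyrosine-phosphorylation readout (665/620 nm ratio) on a 1 uM biotinylated substrate after reaction with preactivated His-tagged TrkA cytoplasmic domain plus ATP and MgCl2/DTT buffer. Compound preincubated 20 min with enzyme; IC50 from log-concentration sigmoid curve, averaged where repeated.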

T1 sequence (P04629 441-796): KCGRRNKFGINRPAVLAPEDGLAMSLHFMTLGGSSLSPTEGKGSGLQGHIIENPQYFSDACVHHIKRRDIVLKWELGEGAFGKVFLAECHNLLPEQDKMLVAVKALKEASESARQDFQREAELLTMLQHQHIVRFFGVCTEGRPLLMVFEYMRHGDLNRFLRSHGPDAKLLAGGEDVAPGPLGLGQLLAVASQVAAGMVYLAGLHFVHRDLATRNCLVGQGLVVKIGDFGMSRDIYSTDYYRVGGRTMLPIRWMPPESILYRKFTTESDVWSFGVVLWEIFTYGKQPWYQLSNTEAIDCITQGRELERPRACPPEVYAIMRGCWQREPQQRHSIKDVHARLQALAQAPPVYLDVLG

For `CC(C)(CO)n1cc(C(=O)c2cc(NC(=O)Cc3ccc(C(F)(F)F)cc3)ccn2)c2cncnc21` [Example 55, N-(2-{[7-(1-hydroxy-2-methylpropan-2-yl)-7H-pyrrolo[2,3-d]pyrimidin-5-yl]carbonyl}pyridin-4-yl)-2-[4-(trifluoromethyl)phenyl]acetamide], the IC50 was 12.9 nM.

In the case of `CC(CO)(CO)n1cc(C(=O)c2cc(NC(=O)Cc3ccc(C#N)cc3)ccn2)c2cncnc21` [Example 107, 2-(4-cyanophenyl)-N-(2-{[7-(1,3-dihydroxy-2-methylpropan-2-yl)-7H-pyrrolo[2,3-d]pyrimidin-5-yl]carbonyl}pyridin-4-yl)acetamide], the IC50 is reported as 467 nM.

`O=C(Cc1cccc(OC(F)(F)F)c1)Nc1ccnc(C(=O)c2cn(C(CO)CO)c3ncncc23)c1` [Example 97, N-(2-{[7-(1,3-dihydroxypropan-2-yl)-7H-pyrrolo[2,3-d]pyrimidin-5-yl]carbonyl}pyridin-4-yl)-2-[3-(trifluoromethoxy)phenyl]acetamide] was tested, and the IC50 was 876 nM.

Molecule `CC(C)n1cc(C(=O)c2cc(NC(=O)Cc3cccc(S(C)(=O)=O)c3)ccn2)c2cncnc21` [Example 81, 2-[3-(methylsulfonyl)phenyl]-N-(2-{[7-(propan-2-yl)-7H-pyrrolo[2,3-d]pyrimidin-5-yl]carbonyl}pyridin-4-yl)acetamide] has an IC50 of 268 nM.

Molecule `CC(C)(C)n1cc(C(=O)c2cc(NC(=O)Cn3cc(C4CC4)nn3)ccn2)c2cncnc21` [Example 36, N-[2-(7-tert-Butyl-7H-pyrrolo[2,3-d]pyrimidine-5-carbonyl)-pyridin-4-yl]-2-(4-cyclopropyl-[1,2,3]triazol-1-yl)-acetamide] has an IC50 of 51.9 nM.

In the case of `CC(C)n1cc(C(=O)c2ccnc(NC(=O)Cc3ccc(C(F)(F)F)cc3)c2)c2cncnc21` [Example 122, N-(4-{[7-(propan-2-yl)-7H-pyrrolo[2,3-d]pyrimidin-5-yl]carbonyl}pyridin-2-yl)-2-[4-(trifluoromethyl)phenyl]acetamide], the IC50 is reported as 4.24 nM.

With `CC(C)(CO)n1cc(C(=O)c2cc(NC(=O)Cc3cccc(C(F)(F)F)c3)ccn2)c2cnc(N)nc21` [Example 49, N-(2-{[2-amino-7-(1-hydroxy-2-methylpropan-2-yl)-7H-pyrrolo[2,3-d]pyrimidin-5-yl]carbonyl}pyridin-4-yl)-2-[3-(trifluoromethyl)phenyl]acetamide] the IC50 was 9.7 nM.

`O=C(Cn1cc(C(F)(F)F)nn1)Nc1cc(C(=O)c2cn(CCO)c3ncncc23)ccn1` [Example 137, N-(4-{[7-(2-hydroxyethyl)-7H-pyrrolo[2,3-d]pyrimidin-5-yl]carbonyl}pyridin-2-yl)-2-[4-(trifluoromethyl)-1H-1,2,3-triazol-1-yl]acetamide] was tested, and the IC50 was 188 nM.

Molecule `CC(C)(CO)n1cc(C(=O)c2cc(NC(=O)Cc3ccc(C#N)cc3)ccn2)c2cnc(N)nc21` [Example 51, N-(2-{[2-amino-7-(1-hydroxy-2-methylpropan-2-yl)-7H-pyrrolo[2,3-d]pyrimidin-5-yl]carbonyl}pyridin-4-yl)-2-(4-cyanophenyl)acetamide] has an IC50 of 78.7 nM.

In the case of `C[C@H](CO)n1cc(C(=O)c2cc(NC(=O)Cc3ccc(C#N)cc3)ccn2)c2cncnc21` [Example 23, 2-(4-cyanophenyl)-N-[2-({7-[(2R)-1-hydroxypropan-2-yl]-7H-pyrrolo[2,3-d]pyrimidin-5-yl}carbonyl)pyridin-4-yl]acetamide], the IC50 is reported as 79.1 nM.

For `CC1(n2cc(C(=O)c3cc(NC(=O)Cc4ccc(F)cn4)ccn3)c3cncnc32)COC1` [Example 172, 2-(5-fluoropyridin-2-yl)-N-(2-{[7-(3-methyloxetan-3-yl)-7H-pyrrolo[2,3-d]pyrimidin-5-yl]carbonyl}pyridin-4-yl)acetamide], the IC50 was 1080 nM.

`CC(C)n1cc(C(=O)c2ccnc(NC(=O)Cc3ccc(F)cn3)c2)c2cncnc21` [Example 73, 2-(5-fluoropyridin-2-yl)-N-(4-{[7-(propan-2-yl)-7H-pyrrolo[2,3-d]pyrimidin-5-yl]carbonyl}pyridin-2-yl)acetamide] gave an IC50 of 58.2 nM.

In the case of `CC(C)n1cc(C(=O)c2cc(NC(=O)Cc3ccc(C#N)cn3)ccn2)c2cncnc21` [Example 109, 2-(5-Cyanopyridin-2-yl)-N-{2-[(7-isopropyl-7H-pyrrolo[2,3-d]pyrimidin-5-yl)carbonyl]pyridin-4-yl}acetamide], the IC50 is reported as 53.6 nM.

`CC(C)n1cc(C(=O)c2cc(NC(=O)Cc3ccc(Cl)cc3)ccn2)c2cnc(N)nc21` [Example 87, N-(2-{[2-amino-7-(propan-2-yl)-7H-pyrrolo[2,3-d]pyrimidin-5-yl]carbonyl}pyridin-4-yl)-2-(4-chlorophenyl)acetamide] gave an IC50 of 6.43 nM.

Molecule `CC(C)n1cc(C(=O)c2cc(NC(=O)Cc3ccc(Cl)cn3)ccn2)c2cnc(N)nc21` [Example 86] has an IC50 of 35 nM.

In the case of `CC(C)n1cc(C(=O)c2ccnc(NC(=O)Cc3ccccc3OC(F)(F)F)c2)c2cncnc21` [Example 119, N-(4-{[7-(propan-2-yl)-7H-pyrrolo[2,3-d]pyrimidin-5-yl]carbonyl}pyridin-2-yl)-2-[2-(trifluoromethoxy)phenyl]acetamide], the IC50 is reported as 71.1 nM.

`CC(C)n1cc(C(=O)c2ccnc(NC(=O)Cc3ccc(C(F)(F)F)c(F)c3)c2)c2cncnc21` [Example 124, 2-[3-fluoro-4-(trifluoromethyl)phenyl]-N-(4-{[7-(propan-2-yl)-7H-pyrrolo[2,3-d]pyrimidin-5-yl]carbonyl}pyridin-2-yl)acetamide] gave an IC50 of 15.1 nM.

For `CC(C)n1cc(C(=O)c2ccnc(NC(=O)Cn3cc(C(F)(F)F)nn3)c2)c2cncnc21` [Example 116, N-(4-{[7-(propan-2-yl)-7H-pyrrolo[2,3-d]pyrimidin-5-yl]carbonyl}pyridin-2-yl)-2-[4-(trifluoromethyl)-1H-1,2,3-triazol-1-yl]acetamide], the IC50 was 59.7 nM.

With `N#Cc1ccc(CC(=O)Nc2cc(C(=O)c3cn(C4CC4)c4ncncc34)ccn2)cc1` [Example 175, 2-(4-cyanophenyl)-N-{4-[(7-cyclopropyl-7H-pyrrolo[2,3-d]pyrimidin-5-yl)carbonyl]pyridin-2-yl}acetamide] the IC50 was 407 nM.

`COCc1cn(CC(=O)Nc2cc(C(=O)c3cn(C(C)C)c4ncncc34)ccn2)nn1` [Example 117, 2-[4-(methoxymethyl)-1H-1,2,3-triazol-1-yl]-N-(4-{[7-(propan-2-yl)-7H-pyrrolo[2,3-d]pyrimidin-5-yl]carbonyl}pyridin-2-yl)acetamide] was tested, and the IC50 was 1550 nM.

In the case of `O=C(Cc1ccc(Cl)cn1)Nc1ccnc(C(=O)c2cn(C(CO)CO)c3ncncc23)c1` [Example 100, 2-(5-chloropyridin-2-yl)-N-(2-{[7-(1,3-dihydroxypropan-2-yl)-7H-pyrrolo[2,3-d]pyrimidin-5-yl]carbonyl}pyridin-4-yl)acetamide], the IC50 is reported as 2190 nM.

`Cc1cc(C)n(CC(=O)Nc2cc(C(=O)c3cn(C(CO)CO)c4ncncc34)ccn2)n1` [Example 112, 2-(3,5-Dimethyl-1H-pyrazol-1-yl)-N-[4-({7-[2-hydroxy-1-(hydroxymethyl)ethyl]-7H-pyrrolo[2,3-d]pyrimidin-5-yl}carbonyl)pyridin-2-yl]acetamide] was tested, and the IC50 was 682 nM.

Work on `Cc1cc(C)n(CC(=O)Nc2cc(C(=O)c3cn(C(C)(C)C)c4ncncc34)ccn2)n1` [Example 174, N-{4-[(7-tert-butyl-7H-pyrrolo[2,3-d]pyrimidin-5-yl)carbonyl}pyridin-2-yl]-2-(3,5-dimethyl-1H-pyrazol-1-yl)acetamide] yielded an IC50 of 27.3 nM.

For `CC1(n2cc(C(=O)c3cc(NC(=O)Cn4cc(C(F)(F)F)nn4)ccn3)c3cncnc32)COC1` [Example 171, N-(2-{[7-(3-methyloxetan-3-yl)-7H-pyrrolo[2,3-d]pyrimidin-5-yl]carbonyl}pyridin-4-yl)-2-[4-(trifluoromethyl)-1H-1,2,3-triazol-1-yl]acetamide], the IC50 was 255 nM.

For `O=C(Cc1ccc(OC(F)(F)F)cc1)Nc1cc(C(=O)c2cn(CCO)c3ncncc23)ccn1` [Example 144, N-(4-{[7-(2-hydroxyethyl)-7H-pyrrolo[2,3-d]pyrimidin-5-yl]carbonyl}pyridin-2-yl)-2-[4-(trifluoromethoxy)phenyl]acetamide], the IC50 was 111 nM.

Molecule `CC(C)(C)n1cc(C(=O)c2cc(NC(=O)Cc3ccc(F)cc3)ccn2)c2cncnc21` [Example 43, N-{2-[(7-tert-butyl-7H-pyrrolo[2,3-d]pyrimidin-5-yl)carbonyl]pyridin-4-yl}-2-(4-fluorophenyl)acetamide] has an IC50 of 15.7 nM.

`CC(C)n1cc(C(=O)c2ccnc(NC(=O)Cc3ccc(Cl)cn3)c2)c2cncnc21` [Example 74, 2-(5-chloropyridin-2-yl)-N-(4-{[7-(propan-2-yl)-7H-pyrrolo[2,3-d]pyrimidin-5-yl]carbonyl}pyridin-2-yl)acetamide] was tested, and the IC50 was 20.9 nM.

`O=C(Cc1ccc(Cl)cc1)Nc1cc(C(=O)c2cn(CC3(CO)COC3)c3ncncc23)ccn1` [Example 115, 2-(4-Chlorophenyl)-N-{4-[(7-{[3-(hydroxymethyl)oxetan-3-yl]methyl}-7H-pyrrolo[2,3-d]pyrimidin-5-yl)carbonyl}pyridin-2-yl]acetamide] showed an IC50 of 126 nM.

`Cc1ccn(CC(=O)Nc2cc(C(=O)c3cn(C(C)C)c4ncncc34)ccn2)n1` [Example 70, 2-(3-methyl-1H-pyrazol-1-yl)-N-(4-{[7-(propan-2-yl)-7H-pyrrolo[2,3-d]pyrimidin-5-yl]carbonyl}pyridin-2-yl)acetamide] showed an IC50 of 144 nM.

With `Cc1cc(C(F)(F)F)nn1CC(=O)Nc1ccnc(C(=O)c2cn(C(C)C)c3nc(N)ncc23)c1` [Example 84, N-(2-{[2-amino-7-(propan-2-yl)-7H-pyrrolo[2,3-d]pyrimidin-5-yl]carbonyl}pyridin-4-yl)-2-[5-methyl-3-(trifluoromethyl)-1H-pyrazol-1-yl]acetamide] the IC50 was 27.1 nM.

Molecule `CC(C)n1cc(C(=O)c2cc(NC(=O)Cn3cc(C4CC4)nn3)ccn2)c2cncnc21` [Example 82, 2-(4-cyclopropyl-1H-1,2,3-triazol-1-yl)-N-(2-{[7-(propan-2-yl)-7H-pyrrolo[2,3-d]pyrimidin-5-yl]carbonyl}pyridin-4-yl)acetamide] has an IC50 of 76.1 nM.
